Measurements as given in ChEMBL document CHEMBL1201862, “PubChem BioAssay data set” (2004).
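48-hour exposure; five concentrations; linearly interpolated endpoints. GI50 = concentration required for 50% inhibition of growth.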 Calls of active or inactive are those of the source. Rule as the data show it: active = GI50 up to about 1.1 µM and inactive = higher.

What was measured:
Assay in all cases: DTP human tumour cell line panel, 48 h
NCI-H522 = test system: NCI-H522
HL-60 = test system: HL-60
SF-295 = test system: SF-295
Malme-3M = test system: Malme-3M
KM12 = test system: KM12
A498 = test system: A498
Hs-578T = test system: Hs-578T
NCI-H23 = test system: NCI-H23
HCT-116 = test system: HCT-116
CCRF-CEM = test system: CCRF-CEM
LOX IMVI = test system: LOX IMVI
SF-268 = test system: SF-268
786-0 = test system: 786-0
HOP-62 = test system: HOP-62
M14 = test system: M14
NCI-H226 = test system: NCI-H226
IGROV-1 = test system: IGROV-1
A549 = test system: A549
SNB-19 = test system: SNB-19

Compound | GI50 (NCI-H522) | GI50 (HL-60) | GI50 (SF-295) | GI50 (Malme-3M) | GI50 (KM12) | GI50 (A498) | GI50 (Hs-578T) | GI50 (NCI-H23) | GI50 (HCT-116) | GI50 (CCRF-CEM) | GI50 (LOX IMVI) | GI50 (SF-268) | GI50 (786-0) | GI50 (HOP-62) | GI50 (M14) | GI50 (NCI-H226) | GI50 (IGROV-1) | GI50 (A549) | GI50 (SNB-19)
CCOc1ccccc1/N=N/C1C(=O)N(C(=O)CC(=O)Nc2ccccc2OC)N=C1C (configuration not stated) | 42.9 µM (inactive) | > 100 µM (inactive) | 20.9 µM (inactive) | > 100 µM (inactive) | > 100 µM (inactive) | 63.4 µM (inactive) | 1.78 µM (inactive) | 80 µM (inactive) | 40.9 µM (inactive) | > 100 µM (inactive) | > 100 µM (inactive) | 22.4 µM (inactive) | 56.2 µM (inactive) | 18.7 µM (inactive) | > 100 µM (inactive) | > 100 µM (inactive) | 50.8 µM (inactive) | > 100 µM (inactive) | –
Oc1ccccc1C(c1cc2c(cc1O)OCO2)N1CCOCC1 (configuration not stated) | 10.2 µM (inactive) | 2.24 µM (inactive) | 20.6 µM (inactive) | 17.8 µM (inactive) | 19.8 µM (inactive) | 22.9 µM (inactive) | 19.5 µM (inactive) | 23.6 µM (inactive) | 17.7 µM (inactive) | 2.14 µM (inactive) | 17.1 µM (inactive) | 18.5 µM (inactive) | 4.89 µM (inactive) | 38.8 µM (inactive) | 17.9 µM (inactive) | 35.6 µM (inactive) | 19.4 µM (inactive) | 23 µM (inactive) | 19.1 µM (inactive)
O=c1[nH]nc(Nc2ccc(Cl)cc2)c2nnn(C3CCCCC3)c12 | 23.9 µM (inactive) | 86.3 µM (inactive) | > 100 µM (inactive) | 50.8 µM (inactive) | 65.5 µM (inactive) | 37.4 µM (inactive) | 34.5 µM (inactive) | 45.3 µM (inactive) | 42.1 µM (inactive) | 26.7 µM (inactive) | 16.4 µM (inactive) | 36.6 µM (inactive) | 15.1 µM (inactive) | 30.8 µM (inactive) | 55.1 µM (inactive) | 86.7 µM (inactive) | > 100 µM (inactive) | > 100 µM (inactive) | > 100 µM (inactive)
COc1ccc(CCN2CCN(CCc3ccc(OC)cc3)CC2)cc1 | > 100 µM (inactive) | > 100 µM (inactive) | 46.6 µM (inactive) | > 100 µM (inactive) | > 100 µM (inactive) | > 100 µM (inactive) | > 100 µM (inactive) | > 100 µM (inactive) | > 100 µM (inactive) | > 100 µM (inactive) | > 100 µM (inactive) | > 100 µM (inactive) | > 100 µM (inactive) | > 100 µM (inactive) | > 100 µM (inactive) | > 100 µM (inactive) | > 100 µM (inactive) | > 100 µM (inactive) | > 100 µM (inactive)
OCCN1CN(c2nc(N3CN(CCO)C3)nc(N3CN(CCO)C3)n2)C1 | 13.4 µM (inactive) | 16 µM (inactive) | – | 21.5 µM (inactive) | 21.4 µM (inactive) | 31.5 µM (inactive) | 35.2 µM (inactive) | 22.2 µM (inactive) | 18.6 µM (inactive) | 20.5 µM (inactive) | 14.8 µM (inactive) | 22.6 µM (inactive) | 23.8 µM (inactive) | 19.3 µM (inactive) | 17.5 µM (inactive) | 24.8 µM (inactive) | 30.1 µM (inactive) | 83.4 µM (inactive) | 23 µM (inactive)
COc1cccc2cc(C(C)=O)c(=O)oc12 | > 100 µM (inactive) | > 100 µM (inactive) | > 100 µM (inactive) | 52.8 µM (inactive) | > 100 µM (inactive) | > 100 µM (inactive) | > 100 µM (inactive) | > 100 µM (inactive) | > 100 µM (inactive) | > 100 µM (inactive) | > 100 µM (inactive) | > 100 µM (inactive) | > 100 µM (inactive) | > 100 µM (inactive) | > 100 µM (inactive) | > 100 µM (inactive) | > 100 µM (inactive) | > 100 µM (inactive) | –
COC1/C=C/C(C)C(OC)CC(O)/C=C/C(C)C(C(C)C(OC)C(C)CCC(=O)C(C)C(C/C=C/N(C)C=O)OC)OC(=O)/C=C/C=C(\C)CC(OC)CC2=CC(=O)O[C@@H](C(C)C(OC)C1)[C@H]2O (some centres not stated) | 0.146 µM (active) | 0.064 µM (active) | 0.11 µM (active) | 0.069 µM (active) | 0.0753 µM (active) | 0.056 µM (active) | 0.0809 µM (active) | 0.26 µM (active) | 0.0188 µM (active) | 0.621 µM (active) | 0.0223 µM (active) | 0.153 µM (active) | 0.0977 µM (active) | 0.0537 µM (active) | 0.056 µM (active) | 0.122 µM (active) | 0.0708 µM (active) | 0.119 µM (active) | 0.0962 µM (active)
NC(=O)CC(N)C(N)=O (configuration not stated) | > 100 µM (inactive) | > 100 µM (inactive) | > 100 µM (inactive) | > 100 µM (inactive) | > 100 µM (inactive) | > 100 µM (inactive) | > 100 µM (inactive) | > 100 µM (inactive) | > 100 µM (inactive) | > 100 µM (inactive) | > 100 µM (inactive) | – | > 100 µM (inactive) | > 100 µM (inactive) | > 100 µM (inactive) | > 100 µM (inactive) | > 100 µM (inactive) | > 100 µM (inactive) | > 100 µM (inactive)
O=C(CC(=O)N(C(=O)c1ccccc1)c1ccc(Cl)cc1)N/N=C\c1ccccc1O | > 100 µM (inactive) | > 100 µM (inactive) | 25.9 µM (inactive) | > 100 µM (inactive) | 33.5 µM (inactive) | 65 µM (inactive) | 26 µM (inactive) | 43.4 µM (inactive) | 30.6 µM (inactive) | 2.86 µM (inactive) | 58.1 µM (inactive) | 24.8 µM (inactive) | 40 µM (inactive) | 31.8 µM (inactive) | > 100 µM (inactive) | 35.5 µM (inactive) | 25.4 µM (inactive) | 82 µM (inactive) | 30.3 µM (inactive)
N#C[BH2-][n+]1ccc(C(=O)NNCc2ccc(F)cc2)cc1 | > 100 µM (inactive) | > 100 µM (inactive) | > 100 µM (inactive) | > 100 µM (inactive) | > 100 µM (inactive) | > 100 µM (inactive) | > 100 µM (inactive) | – | > 100 µM (inactive) | > 100 µM (inactive) | > 100 µM (inactive) | > 100 µM (inactive) | > 100 µM (inactive) | – | > 100 µM (inactive) | > 100 µM (inactive) | > 100 µM (inactive) | > 100 µM (inactive) | > 100 µM (inactive)
CCOC(=O)/C(C(N)=O)=C(/O)c1cnccn1 | > 100 µM (inactive) | > 100 µM (inactive) | > 100 µM (inactive) | > 100 µM (inactive) | > 100 µM (inactive) | > 100 µM (inactive) | > 100 µM (inactive) | > 100 µM (inactive) | > 100 µM (inactive) | > 100 µM (inactive) | > 100 µM (inactive) | > 100 µM (inactive) | > 100 µM (inactive) | – | > 100 µM (inactive) | > 100 µM (inactive) | > 100 µM (inactive) | > 100 µM (inactive) | > 100 µM (inactive)
